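In this assay, cells in 96-well plates receive the compound at five concentrations for 48 hours. Endpoints are linearly interpolated between the surrounding concentrations. Abbreviation: GI50, concentration required for 50% inhibition of growth.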 The source made the active and inactive calls. Rule as the data show it: active = GI50 up to about 1.1 µM and inactive = higher.
Columns and labels:
Experiment in all cases: NCI tumour cell line growth inhibition, 48 h
T47D = system: T47D
A549 = system: A549
NCI/ADR-RES = system: NCI/ADR-RES
RXF 393 = system: RXF 393
CCRF-CEM = system: CCRF-CEM
SF-295 = system: SF-295
MCF7 = system: MCF7
MOLT-4 = system: MOLT-4
LOX IMVI = system: LOX IMVI
NCI-H226 = system: NCI-H226
CAKI-1 = system: CAKI-1
ACHN = system: ACHN
TK-10 = system: TK-10
OVCAR-8 = system: OVCAR-8
SK-OV-3 = system: SK-OV-3
SNB-75 = system: SNB-75
BT-549 = system: BT-549
SR = system: SR
NCI-H522 = system: NCI-H522
M14 = system: M14
SF-268 = system: SF-268
DU-145 = system: DU-145
UO-31 = system: UO-31
HOP-92 = system: HOP-92
SW-620 = system: SW-620
NCI-H23 = system: NCI-H23
KM12 = system: KM12
OVCAR-5 = system: OVCAR-5
786-0 = system: 786-0
Malme-3M = system: Malme-3M
HCT-116 = system: HCT-116
OVCAR-4 = system: OVCAR-4
EKVX = system: EKVX
RPMI-8226 = system: RPMI-8226
UACC-257 = system: UACC-257
IGROV-1 = system: IGROV-1
U-251 = system: U-251
MDA-MB-435 = system: MDA-MB-435
PC-3 = system: PC-3
HCT-15 = system: HCT-15
HOP-62 = system: HOP-62
SK-MEL-28 = system: SK-MEL-28
COLO 205 = system: COLO 205
SN12C = system: SN12C
K562 = system: K562
SNB-19 = system: SNB-19
SK-MEL-5 = system: SK-MEL-5
MDA-N = system: MDA-N
HT-29 = system: HT-29
A498 = system: A498
UACC-62 = system: UACC-62
SK-MEL-2 = system: SK-MEL-2
MDA-MB-231 = system: MDA-MB-231
NCI-H460 = system: NCI-H460
SF-539 = system: SF-539
HL-60 = system: HL-60
HCC 2998 = system: HCC 2998

For `COc1cc(C2SCCCCCCCCCCSC(c3ccc(O)c(OC)c3)SCCCCCCCCCCS2)ccc1O` (stereo not drawn), the GI50 (T47D) was > 100 µM (inactive), the GI50 (A549) was > 100 µM (inactive) and the GI50 (NCI/ADR-RES) was > 100 µM (inactive). For the same compound, the GI50 (RXF 393) was > 100 µM (inactive), the GI50 (CCRF-CEM) was < 0.01 µM (active) and the GI50 (SF-295) was > 100 µM (inactive). The GI50 (MCF7) was > 100 µM (inactive), the GI50 (MOLT-4) was 26.3 µM (inactive) and the GI50 (LOX IMVI) was > 100 µM (inactive). For the same compound, the GI50 (NCI-H226) was > 100 µM (inactive), the GI50 (CAKI-1) was > 100 µM (inactive) and the GI50 (ACHN) was > 100 µM (inactive). The GI50 (TK-10) was > 100 µM (inactive), the GI50 (OVCAR-8) was > 100 µM (inactive) and the GI50 (SK-OV-3) was > 100 µM (inactive). For the same compound, the GI50 (SNB-75) was 52.6 µM (inactive), the GI50 (BT-549) was > 100 µM (inactive) and the GI50 (SR) was 56.1 µM (inactive). The GI50 (NCI-H522) was > 100 µM (inactive), the GI50 (M14) was > 100 µM (inactive) and the GI50 (SF-268) was 52.1 µM (inactive). The GI50 (DU-145) was > 100 µM (inactive), the GI50 (UO-31) was > 100 µM (inactive) and the GI50 (HOP-92) was > 100 µM (inactive). For the same compound, the GI50 (SW-620) was > 100 µM (inactive), the GI50 (NCI-H23) was > 100 µM (inactive) and the GI50 (KM12) was > 100 µM (inactive). The GI50 (OVCAR-5) was > 100 µM (inactive), the GI50 (786-0) was > 100 µM (inactive) and the GI50 (Malme-3M) was 58.1 µM (inactive). The GI50 (HCT-116) was > 100 µM (inactive), the GI50 (OVCAR-4) was > 100 µM (inactive) and the GI50 (EKVX) was > 100 µM (inactive). For the same compound, the GI50 (RPMI-8226) was > 100 µM (inactive), the GI50 (UACC-257) was > 100 µM (inactive) and the GI50 (IGROV-1) was > 100 µM (inactive). For the same compound, the GI50 (U-251) was > 100 µM (inactive), the GI50 (MDA-MB-435) was > 100 µM (inactive) and the GI50 (PC-3) was > 100 µM (inactive). For the same compound, the GI50 (HCT-15) was over 100 µM, the GI50 (HOP-62) was > 100 µM (inactive) and the GI50 (SK-MEL-28) was > 100 µM (inactive). The GI50 (COLO 205) was > 100 µM (inactive), the GI50 (SN12C) was > 100 µM (inactive) and the GI50 (K562) was > 100 µM (inactive). The GI50 (SNB-19) was > 100 µM (inactive), the GI50 (SK-MEL-5) was > 100 µM (inactive) and the GI50 (MDA-N) was > 100 µM (inactive). The GI50 (HT-29) was > 100 µM (inactive), the GI50 (A498) was > 100 µM (inactive) and the GI50 (UACC-62) was > 100 µM (inactive). The GI50 (SK-MEL-2) was > 100 µM (inactive) and the GI50 (MDA-MB-231) was > 100 µM (inactive).

For `CC(C(=O)N1C(=O)N(C(=O)[C@H](C)C(O)c2ccccc2)[C@H](c2ccccc2)[C@H]1c1ccccc1)[C@@H](O)c1ccccc1` (stereo partly drawn), the GI50 (T47D) was 68.9 µM (inactive), the GI50 (A549) was 33 µM (inactive) and the GI50 (NCI-H460) was 22.4 µM (inactive). For the same compound, the GI50 (SF-295) was 29.2 µM (inactive), the GI50 (MCF7) was 26.6 µM (inactive) and the GI50 (NCI-H226) was 27 µM (inactive). For the same compound, the GI50 (CAKI-1) was 20 µM (inactive), the GI50 (ACHN) was 30.5 µM (inactive) and the GI50 (TK-10) was 41.2 µM (inactive). For the same compound, the GI50 (OVCAR-8) was 25.1 µM (inactive), the GI50 (SK-OV-3) was 83.6 µM (inactive) and the GI50 (SNB-75) was 28 µM (inactive). The GI50 (BT-549) was 6.04 µM (inactive), the GI50 (SR) was 0.118 µM (active) and the GI50 (NCI-H522) was 30.3 µM (inactive). For the same compound, the GI50 (M14) was 28.5 µM (inactive), the GI50 (SF-268) was 38.2 µM (inactive) and the GI50 (DU-145) was 50.5 µM (inactive). For the same compound, the GI50 (UO-31) was 31.5 µM (inactive), the GI50 (HOP-92) was 25.6 µM (inactive) and the GI50 (SW-620) was 45.2 µM (inactive). For the same compound, the GI50 (NCI-H23) was 44.4 µM (inactive), the GI50 (KM12) was 31.2 µM (inactive) and the GI50 (SF-539) was 22.2 µM (inactive). The GI50 (OVCAR-5) was 25.2 µM (inactive), the GI50 (786-0) was 29.2 µM (inactive) and the GI50 (HL-60) was 22 µM (inactive). The GI50 (HCT-116) was 34.2 µM (inactive), the GI50 (OVCAR-4) was 26.5 µM (inactive) and the GI50 (EKVX) was 21.1 µM (inactive). For the same compound, the GI50 (UACC-257) was 28.4 µM (inactive), the GI50 (IGROV-1) was 12 µM (inactive) and the GI50 (U-251) was 35.9 µM (inactive). The GI50 (HCC 2998) was 36.7 µM (inactive), the GI50 (MDA-MB-435) was 26.2 µM (inactive) and the GI50 (PC-3) was 9.79 µM (inactive). For the same compound, the GI50 (HCT-15) was 45.7 µM, the GI50 (HOP-62) was 37.1 µM (inactive) and the GI50 (SK-MEL-28) was > 100 µM (inactive). For the same compound, the GI50 (COLO 205) was 18.7 µM (inactive), the GI50 (SN12C) was 38.8 µM (inactive) and the GI50 (K562) was 17.5 µM (inactive). For the same compound, the GI50 (SNB-19) was 37.2 µM (inactive), the GI50 (SK-MEL-5) was 14.9 µM (inactive) and the GI50 (MDA-N) was 20 µM (inactive). The GI50 (HT-29) was 36.6 µM (inactive), the GI50 (A498) was 24.3 µM (inactive) and the GI50 (UACC-62) was 14.6 µM (inactive). The GI50 (SK-MEL-2) was 16.9 µM (inactive) and the GI50 (MDA-MB-231) was 19.5 µM (inactive).

From ChEMBL document CHEMBL1201862, “PubChem BioAssay data set” (2004)
